Laboratory results published in PubChem BioAssay (NCI).
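Five concentrations, 48 hours, 96-well plates. GI50: concentration for 50% inhibition of growth. TGI: concentration producing complete growth inhibition.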

Legend:
Assay in all cases: DTP human tumour cell line panel, 48 h
[1] = tested on: UACC-62 melanoma
[2] = tested on: NCI-H226 lung
[3] = tested on: SNB-75 CNS
[4] = tested on: MALME-3M melanoma
[5] = tested on: SNB-19 CNS
[6] = tested on: HL-60(TB) leukemia
[7] = tested on: MDA-MB-435
[8] = tested on: SK-OV-3 ovarian
[9] = tested on: UO-31 renal
[10] = tested on: OVCAR-4 ovarian
[11] = tested on: NCI-H460 lung
[12] = tested on: RXF 393 renal
[13] = tested on: OVCAR-8 ovarian
[14] = tested on: PC-3 prostate
[15] = tested on: A549 NSCLC
[16] = tested on: SF-268 CNS
[17] = tested on: MDA-MB-231 breast
[18] = tested on: TK-10 renal
[19] = tested on: SF-295 CNS
[20] = tested on: HOP-92 NSCLC
[21] = tested on: COLO 205 colon
[22] = tested on: T-47D breast
[23] = tested on: 786-0 renal
[24] = tested on: HS 578T breast
[25] = tested on: BT-549 breast
[26] = tested on: M14 melanoma
[27] = tested on: SF-539 CNS
[28] = tested on: HT29 colon
[29] = tested on: HOP-62 NSCLC
[30] = tested on: SR leukemia
[31] = tested on: NCI-H23 lung
[32] = tested on: HCC-2998 colon
[33] = tested on: ACHN renal
[34] = tested on: SK-MEL-28 melanoma
[35] = tested on: MCF7 breast
[36] = tested on: HCT-15 colon
[37] = tested on: OVCAR-5 ovarian
[38] = tested on: A498 renal
[39] = tested on: NCI-H522 lung
[40] = tested on: CAKI-1 renal
[41] = tested on: U251 CNS
[42] = tested on: LOX IMVI melanoma
[43] = tested on: SK-MEL-5 melanoma
[44] = tested on: NCI/ADR-RES ovarian
[45] = tested on: UACC-257 melanoma
[46] = tested on: IGROV1 ovarian
[47] = tested on: K-562 leukemia
[48] = tested on: CCRF-CEM leukemia
[49] = tested on: RPMI-8226 leukemia
[50] = tested on: OVCAR-3 ovarian
[51] = tested on: DU-145 prostate
[52] = tested on: SK-MEL-2 melanoma
[53] = tested on: SN12C renal
[54] = tested on: MOLT-4 leukemia
[55] = tested on: SW-620 colon
[56] = tested on: KM12 colon
[57] = tested on: HCT-116 colon

SMILES: CCCOC(=O)c1ccc2c(c1)[N+](=O)C(C(=O)c1ccccc1)=C(C(F)(F)F)[N+]2=O
- GI50 [1]: 1760 nM
- TGI [1]: 3260 nM
- GI50 [2]: 2060 nM
- TGI [2]: 4690 nM
- GI50 [3]: 1490 nM
- TGI [3]: 3000 nM
- GI50 [4]: 1950 nM
- TGI [4]: 3640 nM
- GI50 [5]: 1750 nM
- TGI [5]: 3220 nM
- GI50 [6]: 1960 nM
- TGI [6]: 3880 nM
- GI50 [7]: 1710 nM
- TGI [7]: 3260 nM
- GI50 [8]: 1890 nM
- TGI [8]: 3330 nM
- GI50 [9]: 1670 nM
- TGI [9]: 3060 nM
- GI50 [10]: 1740 nM
- TGI [10]: 3360 nM
- GI50 [11]: 2040 nM
- TGI [11]: 4280 nM
- GI50 [12]: 1700 nM
- TGI [12]: 3250 nM
- GI50 [13]: 1840 nM
- TGI [13]: 3550 nM
- GI50 [14]: 1550 nM
- TGI [14]: 2940 nM
- GI50 [15]: 1670 nM
- TGI [15]: 3330 nM
- GI50 [16]: 1780 nM
- TGI [16]: 3480 nM
- GI50 [17]: 1910 nM
- TGI [17]: 3450 nM
- GI50 [18]: 1590 nM
- TGI [18]: 2990 nM
- GI50 [19]: 1680 nM
- TGI [19]: 3210 nM
- GI50 [20]: 1130 nM
- TGI [20]: 2430 nM
- GI50 [21]: 2090 nM
- TGI [21]: 3850 nM
- GI50 [22]: 1800 nM
- TGI [22]: 3690 nM
- GI50 [23]: 1830 nM
- TGI [23]: 3320 nM
- GI50 [24]: 2010 nM
- TGI [24]: 4530 nM
- GI50 [25]: 1790 nM
- TGI [25]: 3270 nM
- GI50 [26]: 1820 nM
- TGI [26]: 3370 nM
- GI50 [27]: 1790 nM
- TGI [27]: 3210 nM
- GI50 [28]: 2110 nM
- TGI [28]: 4040 nM
- GI50 [29]: 1800 nM
- TGI [29]: 3370 nM
- GI50 [30]: 1880 nM
- TGI [30]: 4850 nM
- GI50 [31]: 1780 nM
- TGI [31]: 3380 nM
- GI50 [32]: 1810 nM
- TGI [32]: 3290 nM
- GI50 [33]: 1780 nM
- TGI [33]: 3260 nM
- GI50 [34]: 1850 nM
- TGI [34]: 3510 nM
- GI50 [35]: 1640 nM
- TGI [35]: 3330 nM
- GI50 [36]: 1630 nM
- TGI [36]: 3300 nM
- GI50 [37]: 1770 nM
- TGI [37]: 3310 nM
- GI50 [38]: 1300 nM
- TGI [38]: 2830 nM
- GI50 [39]: 1800 nM
- TGI [39]: 3500 nM
- GI50 [40]: 1780 nM
- TGI [40]: 3370 nM
- GI50 [41]: 1760 nM
- TGI [41]: 3200 nM
- GI50 [42]: 1720 nM
- TGI [42]: 3350 nM
- GI50 [43]: 1650 nM
- TGI [43]: 3110 nM
- GI50 [44]: 1890 nM
- TGI [44]: 3690 nM
- GI50 [45]: 1750 nM
- TGI [45]: 3220 nM
- GI50 [46]: 1830 nM
- TGI [46]: 3610 nM
- GI50 [47]: 2100 nM
- TGI [47]: 4120 nM
- GI50 [48]: 1850 nM
- TGI [48]: 3980 nM
- GI50 [49]: 1940 nM
- TGI [49]: 4110 nM
- GI50 [50]: 1740 nM
- TGI [50]: 3170 nM
- GI50 [51]: 1840 nM
- TGI [51]: 3310 nM
- GI50 [52]: 1840 nM
- TGI [52]: 3520 nM
- GI50 [53]: 1790 nM
- TGI [53]: 3360 nM
- GI50 [54]: 2050 nM
- TGI [54]: 4090 nM
- GI50 [55]: 1840 nM
- TGI [55]: 3680 nM
- GI50 [56]: 1810 nM
- TGI [56]: 3440 nM
- GI50 [57]: 1700 nM
- TGI [57]: 3360 nM
